Test results as given in patent publication US20170292959A1, “PLASMIDS COMPRISING INTERNAL RIBOSOMAL ENTRY SITES AND USES THEREOF” (Dana-Farber Cancer Institute, Inc., priority 2014, published 2017).
Where a SMILES comes first, the peptide text is derived from it. The star is where a group is joined. Cbz = O=C(OCc1ccccc1)*

Columns and labels:
HIF1α = experiment: Pilot ORF-luciferase stabilization experiment in 293FT cells (Fluc/Rluc); type: cell-based, human; details: DMOG 1 μM, 24 hours
Method: (§1) FIGS. 6A-6B depict the pharmacological stabilization of firefly luciferase fusion protein. 293FT cells were transiently transfected with plasmids encoding unfused Fluc (pIRIF) or the indicated ORF-firefly luciferase (Fluc) fusions and then treated for 24 hours with DMOG (1 μM), MG132 (10 μM), or vehicle (DMSO). HIF1α-dPA is a HIF1α variant lacking both prolyl hydroxylation sites (33). Shown for each plasmid are Fluc/Rluc values (FIG. 6A) and Fold change in Fluc/Rluc compared to DMSO treatment (FIG. 6B). Data are mean±SD, n=4.
(§2) In pilot experiments 293FT embryonic kidney cells grown in multiwell plates were transfected with the ORF-luciferase library (one ORF per well) and treated with the proteasome inhibitor MG132, the hydroxylase inhibitor dimethyloxalylglycine (DMOG), or vehicle. Fluc/Rluc values measured 36 to 48 hours later were stable over a wide range of input plasmid concentrations (FIG. 5).

endogenous IKZF3 = experiment: Immunoblot of endogenous protein in myeloma cells; type: cell-based, human; details: MM1S and L363 cells; pretreated with MG132 or MLN4924
Source text: (§3) Whole cell extracts were resolved by SDS-polyacrylamide gel electrophoresis, transferred onto a nitrocellulose membrane, and probed with the indicated primary antibodies. Bound antibodies were detected with horseradish peroxidase-conjugated secondary antibodies (Pierce) and enhanced chemiluminescence (ECL) western blotting detection regents (Pierce) or Immobilon western chemiluminescent horseradish peroxidase substrate (Millipore).
(§4) For cycloheximide assays, cells were pretreated with DMSO or LEN (2 μM) for 1 hour, and then 100 μg/ml cycloheximide (Sigma) was added into the DMEM growth medium.

endogenous IKZF1 = experiment: Immunoblot of endogenous protein in leukemia and myeloma cells; type: cell-based, human; details: U937, MM1S and L363 cells; pretreated with MG132 or MLN4924
Source text: as §3, §4

proteasomal substrates = experiment: Pilot ORF-luciferase stabilization experiment in 293FT cells (Fluc/Rluc); type: cell-based, human; details: MG132 10 μM, 24 hours
Method: as §1, §2

IKZF1 = experiment: Exogenous IKZF protein level in 293FT cells (Fluc/Rluc ratio, HA immunoblot); type: cell-based, human; details: 12 hours; for effect on down-regulation of exogenous IKZF1 by lenalidomide: with lenalidomide 2 μM, MLN4924 1 μM or MG132 10 μM
Method: To verify the change of Fluc/Rluc of ORFs obtained from the 384-well high-throughput screen, each clone was further tested in a 96 well format. […] On the day of transfection 96-well polypropylene plates (Greiner) were used to prepare the transfection mixture. First, a plasmid mixture containing 240 ng of ORF luciferase fusion clone and 480 ng of pcDNA3 was diluted into 120 μl of Opti-MEM reduced serum. Next 14.4 μL of Lipofectamine 2000 was diluted into 120 μl of Opti-MEM reduced serum. 5 minutes later, the plasmid solution was mixed with the diluted Lipofectamine 2000 using a multi-channel pipette. […] 24 hours after transfection, cells were treated with LEN (2 μM) or DMSO in quadruplicate. […] The ratio of FLuc/Rluc was calculated for each well. To determine the change of Fluc/Rluc for each ORF, the averaged Fluc/Rluc of LEN treated wells was divided by that of DMSO treated wells. A 2-tailed Student's t test was performed to determine the statistical significance. P value <0.05 was considered significant.
as §3

myeloma = details: alone and in combination with lenalidomide; cited from earlier work
[1] = biological target: IKZF2 with the reciprocal change (H141Q) (Homo sapiens, UniProt Q9UKS7, H141Q); details: reciprocal change in IKZF2
Source text: (§5) Human IKZF4 cDNA clone was PCR amplified from ETS clone HsCD00295530 (PlasmID, DF/HCC DNA Resource Core), and then cloned into pDONR223 via BP gateway recombination. Human CRBN, human IKZF1 splicing variant 2 (IKZF1-V2), human IKZF2 splicing variant 2 (IKZF2-V2), human IKZF5 and human IRF4 in pDONR223 entry vectors were obtained from the human ORFeome Collection (DF/HCC DNA Resource Core). IKZF1 splicing variant 1 (IKZF1-V1) cDNA and human IKZF2 splicing variant 1 (IKZF2-V1) cDNA were generated by overlapping PCR and cloned into pDONR223 via BP gateway recombination. IKZF4, IKZF1-V1 and IKZF2-V1 were cloned into pIRIGF via LR gateway recombination. IKZF1/2 chimeras (IKZF12 H1, IKZF12 H2, IKZF12 H3, IKZF12 H4, IKZF21 H5, IKZF21 H6, IKZF21 H7, IKZF2 H8, IKZF121 and IKZF212), IKZF1-V2-Q146H, IKZF1-V2-H176P/L177F, IKZF2-V1-H141Q, IKZF2-V1-P171H/F172L, IKZF1-V1-Q146H, IKZF3-Q147H mutants were generated via overlapping PCR and cloned into pIRIGF via LR gateway recombination. IKZF1-V2, IKZF2-V2, IKZF3, IKZF4, IKZF5 and IRF4 were cloned into plenti-UBC-gate-3xHA-pGK-PUR via LR gateway recombination.

IKZF1 Q146H = IKZF1 Q146H (Homo sapiens, UniProt Q13422, Q146H); details: IKZF1 residue Q146 changed to histidine
Source text: as §5

IRF4 [2] = experiment: Immunoblot of endogenous protein in myeloma cells; type: cell-based, human; details: LEN 2 μM
Source text: as §3

IRF4 mRNA = experiment: Real-time qPCR; type: cell-based, human; details: MM1S cells treated with lenalidomide
Method: Total RNA was extracted using Qiagen RNeasy Mini Kit with on-column DNase digestion. Total RNA was reverse transcribed into first-strand cDNA using AffinityScript QPCR cDNA Synthesis Kit (Agilent) with random primers. Real-time PCR was performed in duplicate using RT2 SYBR Green/ROX qPCR Master Mix (Qiagen) and the Mx3000P QPCR system (Stratagene). Values were averaged to calculate the expression level and normalized against the level of RPS18. PCR primers are as follows: […]

IRF4 [3] = details: at least indirectly; cited from earlier work
IKZF5 = biological target: T1, IKZF5 (Homo sapiens, UniProt Q9H5V7); experiment: Exogenous IKZF protein level in 293FT cells (Fluc/Rluc ratio, HA immunoblot); type: cell-based; details: lenalidomide 2 μM, 12 hours
T1 construct: expressed in transfected cells; host or cells: 293FT
Method: (§6) To verify the change of Fluc/Rluc of ORFs obtained from the 384-well high-throughput screen, each clone was further tested in a 96 well format. The day before transfection, 293FT cells were seeded into solid opaque 96-well plates (BD biosciences) with 20,000 cells in 100 μl of DMEM culture media per well. On the day of transfection 96-well polypropylene plates (Greiner) were used to prepare the transfection mixture. First, a plasmid mixture containing 240 ng of ORF luciferase fusion clone and 480 ng of pcDNA3 was diluted into 120 μl of Opti-MEM reduced serum. Next 14.4 μL of Lipofectamine 2000 was diluted into 120 μl of Opti-MEM reduced serum. 5 minutes later, the plasmid solution was mixed with the diluted Lipofectamine 2000 using a multi-channel pipette. After 30 minutes, 28 μl of DNA/lipofectamine mixture was added to each well of the 96 well plates seeded with 293FT cells (8 wells for each ORF). […] The ratio of FLuc/Rluc was calculated for each well. […]
as §3

IKZF4 = biological target: T2, IKZF4 (Homo sapiens, UniProt Q9H2S9); experiment: as above; type: cell-based; details: lenalidomide 2 μM, 12 hours
T2 construct: expressed in transfected cells; host or cells: 293FT
Method: as §6, §3

C11orf65 = biological target: T3, C11orf65 (Homo sapiens, UniProt Q8NCR3); experiment: Exogenous protein level in 293FT cells (Fluc/Rluc ratio, HA tag); type: cell-based; details: lenalidomide
T3 construct: expressed in transfected cells; host or cells: 293FT
T3 sequence (Q8NCR3 1-313): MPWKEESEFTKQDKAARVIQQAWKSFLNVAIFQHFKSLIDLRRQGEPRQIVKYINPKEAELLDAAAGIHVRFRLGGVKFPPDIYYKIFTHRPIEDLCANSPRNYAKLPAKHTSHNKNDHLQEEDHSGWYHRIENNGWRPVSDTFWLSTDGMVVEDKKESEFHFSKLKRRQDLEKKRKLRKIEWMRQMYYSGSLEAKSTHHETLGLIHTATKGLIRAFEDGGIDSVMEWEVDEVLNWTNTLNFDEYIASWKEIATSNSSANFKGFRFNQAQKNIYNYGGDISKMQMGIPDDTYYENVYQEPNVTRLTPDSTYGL

IRF4 [4] = biological target: T4, IRF4 (Homo sapiens, UniProt Q15306); experiment: Exogenous protein level in 293FT cells (Fluc/Rluc ratio, HA immunoblot); type: cell-based; details: lenalidomide 2 μM, 12 hours
T4 construct: expressed in transfected cells; host or cells: 293FT
Method: as §6, §3

IKZF3 = biological target: T5, IKZF3 (Homo sapiens, UniProt Q9UKT9); experiment: Exogenous IKZF protein level in 293FT cells (Fluc/Rluc ratio, HA immunoblot); type: cell-based; details: pomalidomide 0.2 μM, 12 hours
T5 construct: expressed in transfected cells; host or cells: 293FT
Method: To verify the change of Fluc/Rluc of ORFs obtained from the 384-well high-throughput screen, each clone was further tested in a 96 well format. […] On the day of transfection 96-well polypropylene plates (Greiner) were used to prepare the transfection mixture. First, a plasmid mixture containing 240 ng of ORF luciferase fusion clone and 480 ng of pcDNA3 was diluted into 120 μl of Opti-MEM reduced serum. Next 14.4 μL of Lipofectamine 2000 was diluted into 120 μl of Opti-MEM reduced serum. 5 minutes later, the plasmid solution was mixed with the diluted Lipofectamine 2000 using a multi-channel pipette. […] The ratio of FLuc/Rluc was calculated for each well. To determine the change of Fluc/Rluc for each ORF, the averaged Fluc/Rluc of LEN treated wells was divided by that of DMSO treated wells. A 2-tailed Student's t test was performed to determine the statistical significance. P value <0.05 was considered significant.
as §3

zebrafish = details: in vivo; cited from earlier work
[5] = in vivo; cited from earlier work
cereblon = cereblon (Homo sapiens, UniProt Q96SW2); details: cited from earlier work
[6] = biological target: cereblon autoubiquitination activity (Homo sapiens, UniProt Q96SW2); details: cited from earlier work

## COC(=O)CNC(=O)C(=O)OC [DMOG, dimethyloxalylglycine]
HIF1α
  stabilization of HIF1α-Fluc fusion (Fluc/Rluc): stabilized

## CC(C)C[C@@H](C=O)NC(=O)[C@H](CC(C)C)NC(=O)[C@H](CC(C)C)NC(=O)OCc1ccccc1 [MG132] (Cbz-Leu-Leu-Leu-aldehyde)
Endogenous IKZF3
  effect of pretreatment on lenalidomide down-regulation of endogenous IKZF3: unless the cells were pretreated
Endogenous IKZF1
  effect of pretreatment on lenalidomide down-regulation of endogenous IKZF1: unless the cells were pretreated
Proteasomal substrates
  stabilization of ORF-Fluc fusions (Fluc/Rluc): stabilized many proteasomal substrates
IKZF1
  effect on down-regulation of exogenous IKZF1 by lenalidomide: blocked

## NS(=O)(=O)OC[C@@H]1C[C@@H](n2ccc3c(N[C@H]4CCc5ccccc54)ncnc32)C[C@@H]1O [MLN4924]
Endogenous IKZF3
  effect of pretreatment on lenalidomide down-regulation of endogenous IKZF3: unless the cells were pretreated
Endogenous IKZF1
  effect of pretreatment on lenalidomide down-regulation of endogenous IKZF1: unless the cells were pretreated
IKZF1
  effect on down-regulation of exogenous IKZF1 by lenalidomide: blocked

## CC(C)C[C@H](NC(=O)[C@H](Cc1ccccc1)NC(=O)c1cnccn1)B(O)O [bortezomib]
myeloma
  antimyeloma activity: has antimyeloma activity

## Nc1cccc2c1CN(C1CCC(=O)NC1=O)C2=O (stereo not drawn) [lenalidomide]
[1]
  sensitivity of IKZF2 mutant to lenalidomide: partially sensitive
IKZF1 Q146H
  cereblon binding and lenalidomide-induced degradation: abrogated
IRF4 [2]; KMS34 cells, following loss of IKZF1 and IKZF3
  IRF4 level (immunoblot, time course): decrease
IRF4 [2]; L363 cells, high basal IRF4
  IRF4 level (immunoblot, time course): unaffected
IRF4 [2]; MM1S cells, following loss of IKZF1 and IKZF3
  IRF4 level (immunoblot, time course): decrease
IRF4 [2]; three resistant lines (KMS11, RPMI8226, OCImy5)
  IRF4 level: not down-regulated
IRF4 mRNA
  IRF4 mRNA: Decreased
IRF4 [3]
  IRF4 level, previous studies: down-regulates
IKZF5
  level of exogenous IKZF5: did not affect
IKZF4
  level of exogenous IKZF4: did not affect
C11orf65
  level of C11orf65 fused to HA epitope tag instead of Fluc: unaffected
IRF4 [4]
  level of exogenous IRF4: did not affect

## Nc1cccc2c1C(=O)N(C1CCC(=O)NC1=O)C2=O (stereo not drawn) [pomalidomide]
IKZF3
  level of IKZF3 fused to Fluc or HA: downregulation
IKZF1; pomalidomide 0.2 μM
  level of IKZF1 fused to Fluc or HA: downregulation

## O=C1CCC(N2C(=O)c3ccccc3C2=O)C(=O)N1 (stereo not drawn) [thalidomide]
zebrafish
  effect of treatment of zebrafish: caused fin defects
[5]
  teratogenicity: teratogenicity, manifest as profound limb defects
cereblon
  binding to cereblon: bind
[6]
  effect on cereblon autoubiquitination activity: inhibit
